Test results taken from patent publication US10954237B2, “JAK inhibitors containing a 4-membered heterocyclic amide” (THERAVANCE BIOPHARMA R&D IP, LLC, priority 2017, dated 2021).

Experiments:
[1] = Pharmacokinetics in plasma and lung in mouse; format: in vivo; conditions: oral aspiration, lung AUC / plasma AUC
[2] = test system: IL-5 mediated survival of human eosinophils; test: IL-5 mediated eosinophil survival assay; format: cell-based
Protocol: The potency of the test compound for IL-5 mediated eosinophil survival was measured in human eosinophils isolated from human whole blood (AllCells). Because IL-5 signals through JAK, this assay provides a measure of JAK cellular potency.
Human eosinophils were isolated from fresh human whole blood (AllCells) of healthy donors. Blood was mixed with 4.5% Dextran (Sigma-Aldrich) in a 0.9% sodium chloride solution (Sigma-Aldrich). Red blood cells were left to sediment for 35 minutes. The leukocyte rich upper layer was removed and layered over Ficoll-Paque (GE Healthcare) and centrifuged at 600 g for 30 minutes. The plasma and mononuclear cell layers were removed before the granulocyte layer was lysed with water to remove any contaminating red blood cells. […] Purity was analyzed using a LSRII flow cytometer (BD Biosciences). […]
After cytokine stimulation, cells were centrifuged at 300 g for 5 min and washed twice with cold DPBS (Life Technologies). To access viability and apoptosis, cells were incubated with Propidium Iodide (Thermo Fisher Scientific) and APC Annexin V (BD Biosciences) and analyzed using a LSRII flow cytometer (BD Biosciences). IC50 values were determined from analysis of the viability curves of percent cell viability vs compound concentration. Data are expressed as pIC50 (negative decadic logarithm IC50) values.

[3] = test system: IFNγ induced CXCL10 secretion; test: IFNγ induced CXCL10 in human 3D airway cultures; format: cell-based
Protocol: EpiAirway tissue cultures were obtained from Mattek (AIR-100). Cultures were derived from asthmatic donors. In a cell culture insert, human derived tracheal/bronchial epithelial cells were grown and differentiated on a porous membrane support, allowing an air-liquid interface with warmed culture medium below the cells and a gaseous test atmosphere above. Tissues were cultured in maintenance media (Mattek, AIR-100-MM) in a 37° C., 5% CO2 humidified incubator. Four donors were tested. On Day 0, tissue cultures were treated with test compounds at 10 μM, 1 μM and/or 0.1 μM. Compounds were diluted in dimethyl sulfoxide (DMSO, Sigma) to a final concentration of 0.1%. DMSO at 0.1% was used as a vehicle control. Test compounds were incubated with cultures for 1 hour at 37° C., 5% CO2, followed by the addition of pre-warmed media containing IFNγ (R&D Systems) or IL-27 (R&D Systems) at a final concentration at 100 ng/ml. Tissue cultures were maintained for 8 days. Media was replaced every 2 days with fresh media containing compounds and IFNγ or IL-27. On Day 8, tissue cultures and supernatants were collected for analysis. […] Data is expressed as % Inhibition+/−standard deviation (±STDV). Percent inhibition was determined by compound inhibitory potency against IFNγ or IL-27 induced CXCL10 or CXCL9 secretion compared to vehicle treated cells. […]

[4] = test system: IL-2/anti-CD3 stimulated IFNγ in human PBMCs; test: Inhibition of IL-2/anti-CD3 stimulated IFNγ in human PBMCs; format: cell-based
Protocol: The potency of the test compound for inhibition of interleukin-2 (IL-2)/anti-CD3 stimulated interferon gamma (IFNγ) was measured in human peripheral blood mononuclear cells (PBMCs) isolated from human whole blood (Stanford Blood Center). Because IL-2 signals through JAK, this assay provides a measure of JAK cellular potency.
(1) Human peripheral blood mononuclear cells (PBMC) were isolated from human whole blood of healthy donors using a ficoll gradient. Cells were cultured in a 37° C., 5% CO2 humidified incubator in RPMI (Life Technologies) supplemented with 10% Heat Inactivated Fetal Bovine Serum (FBS, Life Technologies), 2 mM Glutamax (Life Technologies), 25 mM HEPES (Life Technologies) and 1× Pen/Strep (Life Technologies). Cells were seeded at 200,000 cells/well in media (50 μL) and cultured for 1 h. Compounds were serially diluted in DMSO and then diluted another 500-fold (to a 2× final assay concentration) in media. […]
(2) After cytokine stimulation, cells were centrifuged at 500 g for 5 min and supernatants removed and frozen at −80° C. To determine the inhibitory potency of the test compound in response to IL-2/anti-CD3, supernatant IFNγ concentrations were measured via ELISA (R&D Systems). IC50 values were determined from analysis of the inhibition curves of concentration of IFNγ vs compound concentration. Data are expressed as pIC50 (negative decadic logarithm IC50) values.

[5] = test system: IL-6 stimulated STAT3 phosphorylation in CD3+ T cells; test: Inhibition of IL-6 stimulated pSTAT3 in CD3+ T cells; format: cell-based, human
Text: A protocol analogous to that of Assay 10 was used to determine the potency of the test compound for inhibition of interleuken-6 (IL-6) stimulated STAT3 phosphorylation. An Alexa Fluor 647 conjugated anti-pSTAT3 antibody (pY705, Clone 4/P, BD Biosciences) was used to detect STAT3 phosphorylation.

Lung to Plasma ratio Assay 3 [1] | SMILES | IL-5 mediated human eosinophil survival (in words) [2] | inhibition at 10 µM [3] [%] | anti-CD3 and IL-2 induced release of IFNγ from activated human peripheral blood-isolated T cells (in words) [4] | IL-6 signaling (in words) [5]
C (C denotes a ratio between 20 and 50) | CCCN1Cc2[nH]c(-c3n[nH]c4cc(-c5cc(F)c(O)cc5CC)ccc34)nc2C[C@H]1C(=O)N1CC(N(C)C)C1 [Example 4, (S)-(3-(dimethylamino)azetidin-1-yl)(2-(6-(2-ethyl-5-fluoro-4-hydroxyphenyl)-1H-indazol-3-yl)-5-propyl-4,5,6,7-tetrahydro-3H-imidazo[4,5-c]pyridin-6-yl)methanone] |  |  |  | 
 | CCc1cc(O)c(F)cc1-c1ccc2c(-c3nc4c([nH]3)CN(C(C)C)[C@H](C(=O)N3CC(N(C)C)C3)C4)n[nH]c2c1 [Example 2, (S)-(3-(dimethylamino)azetidin-1-yl)(2-(6-(2-ethyl-5-fluoro-4-hydroxyphenyl)-1H-indazol-3-yl)-5-isopropyl-4,5,6,7-tetrahydro-3H-imidazo[4,5-c]pyridin-6-yl)methanone] | potently inhibit | 101 | inhibit | inhibit
